Reference: PMC6076261, “A new quinoline-based chemical probe inhibits the autophagy-related cysteine protease ATG4B” (Scientific Reports, 2018)

How the values were obtained:
SKBR3-hrGFP-LC3B cells = experiment: High content screening of GFP-LC3B puncta; format: cell-based; conditions: 100 nM, 1 µM, 10 µM; 6 h and 24 h
Excerpt: One hundred of the predicted best binding ATG4B inhibitors were obtained to test for effects on GFP-LC3B puncta levels in SKBR3-hrGFP-LC3B breast cancer cells cultured in standard fed conditions. Based on our observations using ATG4B-siRNAs (Figs 2a,b and S1) and several reports in the literature[22]–[24], we expected that reduced ATG4B function would primarily affect LC3B-II recycling and lead to an increase in GFP-LC3B puncta, whereas complete loss of ATG4B would also affect pro-LC3B processing and lead to a decrease in GFP-LC3B puncta formation. Compounds were initially tested at three concentrations (100 nM, 1 µM and 10 µM) and two treatment periods (6 hour and 24 hour). In parallel, all compounds were tested at a single concentration (8 µM) in a FRET-LC3 ATG4B enzymatic assay developed in our group. […] Calculations predicted that compound 1–4 bound to closed binding site#1 (Fig. S2) while 2–22 and 3–22 bound to open site#2 (Fig. S3) and 4–6 and 4–28 bound to closed site#2 (Figs S4 and S5). Of these, compounds 1–4 and 4–6 are biphenols which are potentially metabolically unstable by oxidation, sulfation and glucuronidation pathways. Compound 2–22 and 3–22 have electrophilic sites, which are drawbacks for drug development as they are prone to metabolic transformation and could lead to covalent bond formation with biological nucleophiles. […] It was nonetheless selected for further follow-up based on its favorable structural characteristics and resemblance to the known drugs and lysosomal-related autophagy inhibitors, chloroquine and hydroxychloroquine, and to the styrylquinoline, MK-571, a selective antagonist of leukotriene D4 known to have an excellent pharmacokinetic profile in terms of oral bioavailability and long duration of action.
High-throughput fluorescence microscopy was performed at room-temperature on the InCell Analyzer 1000 (GE Healthcare) using the 20X objective to view Hoescht 33342 nuclear stain, ethidium homodimer (EthD1) viability stain and GFP-LC3 puncta in SKBR3-hrGFP-LC3B cells. Thirty min prior to imaging, cells were incubated at 37 °C with 4 µM Hoechst 33342 (Invitrogen) and 0.5 µM EthD1 (Invitrogen). Image analysis was performed using InCell Developer Toolbox (Ver. 1.6, GE Healthcare). Individual cells were identified with segmentation of nuclei based on Hoechst 33342 staining. Cell borders were determined by defining a radius around the nucleus. Cells were classified as “dead” if the defined cell overlapped by at least 50% with the EthD1 signal. The number of GFP-LC3 puncta within each live cell was then counted, as well as the number of live cells with at least 5 puncta. Puncta were defined as GFP positive structures of at least 1 pixel with a form factor (estimate of circularity) of at least 0.4.

ATG4B [1] = target: T1, ATG4B (Homo sapiens, UniProt Q9Y4P1); experiment: FRET-LC3 ATG4B enzymatic assay; format: biochemical; conditions: read-out: inhibition in the screening FRET assay
T1 sequence (Q9Y4P1 1-393): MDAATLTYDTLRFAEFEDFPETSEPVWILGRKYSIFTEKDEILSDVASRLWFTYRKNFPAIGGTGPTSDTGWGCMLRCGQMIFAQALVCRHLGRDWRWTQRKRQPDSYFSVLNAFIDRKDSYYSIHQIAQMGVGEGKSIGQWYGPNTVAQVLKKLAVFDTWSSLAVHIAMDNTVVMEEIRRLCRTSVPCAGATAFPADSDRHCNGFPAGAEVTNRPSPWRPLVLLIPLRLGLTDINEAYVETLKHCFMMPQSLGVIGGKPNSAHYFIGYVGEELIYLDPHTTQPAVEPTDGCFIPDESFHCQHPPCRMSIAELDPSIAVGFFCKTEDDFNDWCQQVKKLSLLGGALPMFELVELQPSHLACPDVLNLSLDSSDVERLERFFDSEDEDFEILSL

MCF7 cells = experiment: LC3B-based autophagy flux assay (western blot) in MCF7 cells; format: cell-based; conditions: with and without bafilomycin A1
Excerpt: While the effects observed were modest, this observation is consistent with reduced LC3B-II recycling and reduced autophagic flux.

ATG4B [2] = target: T1, ATG4B; experiment: Mass spectrometry ATG4B enzymatic assay with GFP-LC3-YFP substrate
Experimental: The sample was centrifuged at 10000 × g during 1 min. The supernatant was removed. This operation was done two more times. […] 15 µL of this ATG4B solution were mixed with the 20 µL rinsed immobilized TCEP solution. The solution was incubated on a carousel at 4 °C for 1 h. […] Kinetic determination was performed in triplicate in 1 dram HPLC vials using 350 µL glass inserts. […] The analysis of the m/z distribution signal resulting from the protein substrate was performed by Agilent MassHunter Workstation software elucidating proteins 20000–80000 Da between 700 m/z and 1800 m/z. […] The amount of cleavage was determined by calculating the value of the formula A/(A + B) where A was the peak height of the 27885 Da residue and B was the peak height of the 72904 Da residue. Each experiment was assessed with a concomitant parallel negative control.

ATG4B [3] = target: T1, ATG4B; experiment: Fluorimetric ATG4B enzymatic assay with fluorescent peptide substrate pim-FG-PABA-AMC; format: biochemical; conditions: for IC50: pim-FG-PABA-AMC substrate, read-out: IC50, fluorimetric assay with fluorogenic peptide substrate
Experimental: 100 μL of immobilized TCEP in deionized water was diluted in 2.50 mL of buffer (50 mM Tris, 35 mM NaCl, pH = 8). The sample was centrifuged at 10,000 × g during 1 min. The supernatant was removed. This operation was done two more times. […] The solution was incubated on a carousel at 4 °C for 1 h. This solution was then diluted with 2.06 mL of buffer (50 mM Tris, 35 mM NaCl, 5 mM EDTA, pH 8), centrifuged at 10,000 × g during 1 min and the supernatant, containing the activated ATG4B (1 µM), was kept. A 96-well all-black plate was loaded where each well was charged with 55 µL of inhibitor at different concentrations (0 µM to 100 µM or 200 µM) in buffer/DMSO 41:3 (v/v) and 20 μL of enzyme or buffer were dispensed using a dispenser (Biotek). Plate was incubated for 30 min. A single read was done using excitation and emission wavelengths of 350/450 nm. 25 µL of peptide substrate (pim-FG-PABA-AMC)[52] (final assay concentration 100 µM) was dispensed using a dispenser (Biotek). Experiments were performed in triplicate except when it is mentioned. Fluorescent reads were performed using the Synergy 4 (Biotek) at 25 °C using excitation and emission wavelengths of 350/450 nm every 15 min for 2 h.

[4] = Stability of 4-28 under irradiation, HPLC analysis; format: physicochemical
Excerpt: 4–28 is a 4-aminostyrylquinoline, a structural class known to be photo-reactive[51]. In preliminary assays under standard conditions with the reducing agent TCEP present, we noted the formation of isomers and adducts between 4–28 and TCEP (Fig. 3b). Thus, to confirm the ability of 4–28 to inhibit ATG4B activity, we used a mass spectrometry assay using a GFP-LC3-YFP substrate[36] and by using activation of the enzyme with TCEP on solid support, which can be easily removed after the activation and prior to incubation with the inhibitor. […] (Fig. 3d). […] By these two assays, we confirmed the ability of 4–28 to inhibit ATG4B catalytic activity.
In our case, with incubation of 4–28 for 1 h under UV-irradiation, the formation of the cis compound was observed by HPLC and ^1H NMR along with other compounds consistent with further electrocyclization (Figs 3b and S6 and S7). Given these observed instabilities and reactivity, a structure-activity relationship study was initiated with an aim to identify an analog with improved stability and enhanced potency against ATG4B and with a pharmacokinetic profile suitable to support in vivo testing.

Row | Compound | effect on GFP-LC3 puncta in primary screen (SKBR3-hrGFP-LC3B cells) | IC50 (ATG4B [3]) [µM] | further results
1 | Cc1cc(Cc2cc(C)c(O)c(CO)c2)cc(CO)c1O [1–4] | increase in GFP-LC3 puncta |  | 
2 | COc1cccc(NC(=O)C(=O)C(C(=O)c2ccccc2F)C2OC(=O)c3ccccc32)c1 (stereo not shown) [2–22] | increase in GFP-LC3 puncta |  | 
3 | O=C(Nc1ccc([N+](=O)[O-])cc1)C(=O)C(C(=O)c1ccccc1F)C1OC(=O)c2ccccc21 (stereo not shown) [3–22] | increase in GFP-LC3 puncta |  | 
4 | CCCCN(CCC(=O)O)c1ccc(/C=C/c2ccnc3ccccc23)cc1 [4–28] | decrease in GFP-LC3 puncta | 79 ± 9 | inhibition at 8 µM (ATG4B [1]): 43%; endogenous LC3B-II (MCF7 cells): accumulation of LC3B-II that was not additive to bafilomycin A1; IC50 (ATG4B [2]): 116 ± 14 µM; cis-isomer formed under assay conditions ([4]; 1 irradiation at 350 nm each 15 min for 2 h): 4%; stability under UV irradiation ([4]; 1 h UV irradiation, HPLC and 1H NMR): instability under UV irradiation
5 | CCOC(=O)CCSC(SCCC(=O)OCC)c1ccc(/C=C/c2ccnc3cc(Cl)ccc23)cc1 [Compound 68] |  | > 100 | 
6 | C=CCSC(SCC=C)c1ccc(/C=C/c2ccnc3cc(Cl)ccc23)cc1 [Compound 69] |  | > 100 | 
7 | CCN(CCO)CCCC(C)Nc1ccnc2cc(Cl)ccc12 (stereo not shown) [hydroxychloroquine, reference compound] |  |  | inhibition of activity of purified ATG4B (ATG4B [3]; up to 200 µM): did not show significant inhibition
